Where a SMILES comes first, the peptide text is derived from it. [ ]: non-standard residue; d: D form. pGlu = O=C1CC[C@@H](C(=O)O)N1
What was measured:
[1] = tested on: bfGnRHR-2; experiment: Inositol phosphate (IP) production, GH3 cells expressing bfGnRHR-2; type: cell-based, bullfrog; conditions: log of EC50 (negative values), concentration inducing half-maximal stimulation, 30 min
Description: (§1) The GnRH receptor, a membrane protein connected with the G protein, activates the G protein when activated by a ligand, and the activated G protein activates phospholipase C and thereby the synthesis of inositol phosphate (IP), which is the second transmitter in cells, is increased. Based on this principle, the activity of a receptor can be investigated by measuring the amount of IP within cells. GH3 cell lines were obtained from the Cell Line Bank at the Cancer Research Center, Seoul National University College of Medicine, located in Seoul, Republic of Korea. The GH3 cell lines were infected with retroviruses comprising genes encoding […]-2, and bfGnRHR-3 which are bullfrog GnRH receptors, and rat GnRHR, and cell lines expressing each of these receptors were obtained. The GH3 cells expressing […]-3, and rat GnRHR were cultured on 12-well plates. After 24 hours, the cells were cultured again for 24 hours in a media containing no inositol, to which H^3-myoinositol was added. […] Thereafter, they were treated with GnRH having a suitable concentration, cultured at 37° C. for another 30 minutes, and then the media was eliminated. The cells were treated with 10 mM of ice-cold formic acid to terminate the reaction, and the cell extracts were mixed with Dowex anionic exchange resins. These resins were washed with distilled water, IP was extracted with 1 M ammonium formate/0.1 M formic acid, and cpm (count per minute) was determined. The GH3 cell lines were infected with retroviruses comprising genes encoding […]-2, and bfGnRHR-3 which are bullfrog GnRH receptors, and rat GnRHR, and cell lines expressing each of these receptors were obtained. […] In all the cell lines it was observed that when they were treated with GnRH and the agonists, IP was formed in a concentration-dependent manner.

[2] = tested on: bfGnRHR-3; experiment: Inositol phosphate (IP) production, GH3 cells expressing bfGnRHR-3; type: cell-based, bullfrog; conditions: log of EC50 (negative values), concentration inducing half-maximal stimulation, 30 min
Description: as §1

[3] = tested on: bfGnRHR-3; experiment: Ligand-receptor binding assay, I125-GnRH-2 competition, membranes of GH3 cells expressing bfGnRHR-3; set-up: species or system bullfrog; conditions: log of IC50 (negative values); competition with I125-GnRH-2, 4° C., 16 hours
Method: To determine the binding affinity between GnRH and GnRH receptors, GnRH-2 was radiolabeled with I^125. The GH3 cells expressing bfGnRHR-1, bfGnRHR-2, bfGnRHR-3, and rat GnRHR constructed in Example 2-3 above were cultured on 100-mm dishes. After 48 hours, the cells were homogenized to obtain cellular membranes, which were then dissolved in binding buffer (40 mM Tris, pH 7.4, 2 mM MgCl2). 20 μg of membrane proteins were reacted with I^125-GnRH-2 at 4° C. for 16 hours. […] After the reaction was completed, 1^125-GnRH-2 bound to the receptors was filtered using a Brandel harvester, and cpm was measured using a γ-counter.
The GH3 cells expressing bfGnRHR-3 obtained from Example 6-1 above were treated with l^125GnRH-2 and GnRH-2 agonists and antagonists at various concentrations to determine the binding affinity of GnRH-2 agonists and antagonists toward the receptors.

[4] = tested on: TSU-Pri cells; experiment: Binding of radiolabeled GnRH to TSU-Pri prostate cancer cells and competition; set-up: species or system human; conditions: for reduction of radiolabeled GnRH-2 binding to TSU-Pri cells by unradiolabeled competitor: unradiolabeled peptide as competitor
Method: The radiolabeled GnRH and the cells were cultured at room temperature for 6 hours, and then washed with PBS (phosphate-buffered saline) several times to eliminate the unbound GnRH. Thereafter, the cells were isolated and radioactivity from the cells was measured using a γ-counter.

[5] = tested on: Primate GnRH-2 receptor; experiment: c-fos-luc luciferase activation by agonists, CV-1 cells expressing Primate GnRH-2 receptor; type: cell-based, Primates; conditions: luciferase activation; for Log EC50: log of EC50 (negative values); for Log EC50 / Emax (fold-induction): average of three independent experiments; for Ratio of EC50 values based on EC50 value of GnRH-2: GnRH-2 = 1
Method: Complimentary DNA (cDNA) for a Primate GnRH-2 receptor was obtained from a CV-1 cell genome. […] Plasmids having Primate GnRH-2 receptors where transfected into CV-1 cells. To assay the activity of the receptor, c-fos-luc where a luciferase gene is fused with a c-fos promoter was co-transfected as a probe gene. After 48 hours from transfection, the cells were treated with GnRH-2 agonists and then the activity of luciferase was assayed (Seong et al., Endocrinology vol 144 2003, 454-466). […] Of the GnRH-2 receptors, [[…]]GnRH-2 performed excellently, showing effects about 3 times that of a wild-type ligand, GnRH-2. […] When analogs where the 5th, 7th, and 8th amino acids of [[…]]GnRH-2 are substituted were used, it was observed that their effects were weaker than [[…]]GnRH-2, and therefore it can be seen that it is important to maintain His, Trp, and Tyr that are found at the 5th, 7th, and 8th positions of GnRH-2 as they are (FIG. 3b). Log EC50 values and Emax values of GnRH-2 agonists are average values of experiments that were conducted independently three times. Ratio^a represents the ratio of EC50 values of other GnRH analogs based on EC50 values of GnRH-2.

[6] = tested on: bfGnRHR-1; experiment: Inositol phosphate (IP) production, GH3 cells expressing bfGnRHR-1; type: cell-based, bullfrog; conditions: for Log EC50: log of EC50 (negative values), concentration inducing half-maximal stimulation, 30 min
Description: as §1

[7] = target: T1, rat GnRHR (Rattus norvegicus, UniProt P30969); experiment: Inositol phosphate (IP) production, GH3 cells expressing rat GnRHR; type: cell-based; conditions: for sensitivity compared with GnRH-1: rat GnRHR
T1 construct: expressed in transfected cells; host or cells: GH3 cells, retrovirus-mediated infection
T1 sequence (P30969 1-327): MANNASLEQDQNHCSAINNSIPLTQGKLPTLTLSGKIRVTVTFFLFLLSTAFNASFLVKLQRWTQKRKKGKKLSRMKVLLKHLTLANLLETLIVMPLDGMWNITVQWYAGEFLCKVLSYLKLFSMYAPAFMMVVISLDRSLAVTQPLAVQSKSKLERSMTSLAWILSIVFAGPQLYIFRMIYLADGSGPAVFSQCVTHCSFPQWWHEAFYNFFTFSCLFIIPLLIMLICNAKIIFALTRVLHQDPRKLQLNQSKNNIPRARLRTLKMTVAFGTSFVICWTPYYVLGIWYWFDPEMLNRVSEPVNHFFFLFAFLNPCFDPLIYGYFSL
Description: The GnRH receptor, a membrane protein connected with the G protein, activates the G protein when activated by a ligand, and the activated G protein activates phospholipase C and thereby the synthesis of inositol phosphate (IP), which is the second transmitter in cells, is increased. Based on this principle, the activity of a receptor can be investigated by measuring the amount of IP within cells. GH3 cell lines were obtained from the Cell Line Bank at the Cancer Research Center, Seoul National University College of Medicine, located in Seoul, Republic of Korea. The GH3 cell lines were infected with retroviruses comprising genes encoding […]-2, and bfGnRHR-3 which are bullfrog GnRH receptors, and rat GnRHR, and cell lines expressing each of these receptors were obtained. The GH3 cells expressing […]-3, and rat GnRHR were cultured on 12-well plates. After 24 hours, the cells were cultured again for 24 hours in a media containing no inositol, to which H^3-myoinositol was added. […] Thereafter, they were treated with GnRH having a suitable concentration, cultured at 37° C. for another 30 minutes, and then the media was eliminated. The cells were treated with 10 mM of ice-cold formic acid to terminate the reaction, and the cell extracts were mixed with Dowex anionic exchange resins. These resins were washed with distilled water, IP was extracted with 1 M ammonium formate/0.1 M formic acid, and cpm (count per minute) was determined. The GH3 cell lines were infected with retroviruses comprising genes encoding […]-2, and bfGnRHR-3 which are bullfrog GnRH receptors, and rat GnRHR, and cell lines expressing each of these receptors were obtained.

[8] = tested on: luteinizing hormone and testosterone secretion; experiment: GnRH-2 agonist-induced serum LH and testosterone levels in male rat (radioimmunoassay); type: in vivo; conditions: 10 μg injected
Method: Example 3: GnRH-2 Agonist-induced serum LH and testosterone levels [D-Ala^6]GnRH-2 was dissolved in saline at a concentration of 100 μg/ml, and then 10 μg of [D-Ala^6]GnRH-2 was injected into the cervix of a male rat (Sprague Dawley rat having a weight of approximately 100 g). 1, 2, 4, and 8 hours after the injection, serum was obtained from the rat. The concentration of luteinizing hormone and testosterone present in the serum was measured by radioimmunoassay.

[9] = cells expressing rat GnRH receptor

NC(=O)CNC(=O)[C@@H]1CCCN1C(=O)[C@H](Cc1ccc(O)cc1)NC(=O)[C@H](Cc1c[nH]c2ccccc12)NC(=O)CNC(=O)[C@H](Cc1c[nH]cn1)NC(=O)[C@H](CO)NC(=O)[C@H](Cc1c[nH]c2ccccc12)NC(=O)[C@H](Cc1c[nH]cn1)NC(=O)[C@@H]1CCC(=O)N1 [GnRH-2] ([pGlu]HWSHGWYPG-NH2)
Log EC50 [1]: −8.98 ± 0.14
Log EC50 [2]: −9.51 ± 0.10
Binding affinity (log IC50 value) [3]: −8.63 ± 0.14
binding of radiolabeled ligand to TSU-Pri cells ([4]; I125-radiolabeled peptide, room temperature, 6 hours): binding with cells was observed
reduction of radiolabeled GnRH-2 binding to TSU-Pri cells by unradiolabeled competitor [4]: the binding was reduced
Log EC50 [5]: −8.39 ± 0.10
Ratio of EC50 values based on EC50 value of GnRH-2 [5]: 1
Emax (fold-induction) [5]: 11.74 ± 0.31 fold-induction
Log EC50 [6]: −9.41 ± 0.13
sensitivity compared with GnRH-1 [7]: a sensitivity lower than 10-fold

C[C@@H](NC(=O)[C@H](Cc1c[nH]cn1)NC(=O)[C@H](CO)NC(=O)[C@H](Cc1c[nH]c2ccccc12)NC(=O)[C@H](Cc1c[nH]cn1)NC(=O)[C@@H]1CCC(=O)N1)C(=O)N[C@@H](Cc1c[nH]c2ccccc12)C(=O)N[C@@H](Cc1ccc(O)cc1)C(=O)N1CCC[C@H]1C(=O)NCC(N)=O [[D-Ala^6]GnRH-2, p-Glu-His-Trp-Ser-His-D-Ala-Trp-Tyr-Pro-GlyNH2] ([pGlu]HWSH[dA]WYPG-NH2)
Log EC50 [1]: −9.91 ± 0.19
Log EC50 [2]: −9.89 ± 0.10
serum luteinizing hormone (LH) ([8]; male Sprague Dawley rat about 100 g, serum 1, 2, 4, 8 hours): an increase of luteinizing hormone (LH) was observed in only one hour
time of serum testosterone peak after injection ([8]; male rat): 4 h
serum testosterone ([8]; male rat, compared with before the injection): significantly high value even after 8 hours
Binding affinity (log IC50 value) [3]: −9.83 ± 0.14
reduction of radiolabeled GnRH-2 binding to TSU-Pri cells by unradiolabeled competitor [4]: reduced in a concentration-dependent manner
Log EC50 [5]: −8.81 ± 0.12
Ratio of EC50 values based on EC50 value of GnRH-2 [5]: 0.38
Emax (fold-induction) [5]: 11.84 ± 0.47 fold-induction
fold lower activating concentration than GnRH-2 [6]: ~8 fold
Log EC50 [6]: −9.91 ± 0.13
fold higher sensitivity than GnRH-2 [7, 9]: 5 fold
fold lower sensitivity than GnRH-1 [7, 9]: 3.5 fold
sensitivity compared with GnRH-1 [7]: a sensitivity lower than 10-fold

NC(=O)CNC(=O)[C@@H]1CCCN1C(=O)[C@H](Cc1ccc(O)cc1)NC(=O)[C@H](Cc1c[nH]c2ccccc12)NC(=O)[C@@H](Cc1c[nH]c2ccccc12)NC(=O)[C@H](Cc1c[nH]cn1)NC(=O)[C@H](CO)NC(=O)[C@H](Cc1c[nH]c2ccccc12)NC(=O)[C@H](Cc1c[nH]cn1)NC(=O)[C@@H]1CCC(=O)N1 [[D-Trp^6]GnRH-2] ([pGlu]HWSH[dW]WYPG-NH2)
Log EC50 [1]: −9.21 ± 0.13
Log EC50 [2]: −9.22 ± 0.11
Binding affinity (log IC50 value) [3]: −8.10 ± 0.11
Log EC50 [5]: −8.31 ± 0.09
fold lower effect than GnRH-2 [5]: ~1.2 fold
Ratio of EC50 values based on EC50 value of GnRH-2 [5]: 1.20
Emax (fold-induction) [5]: 11.20 ± 0.32 fold-induction
Log EC50 [6]: −9.40 ± 0.12

Reference: patent publication US7285528B2, “Agonists and antagonists of gonadotropin-releasing hormone-2, and use thereof” (priority 2002, dated 2007)
